Numbers after ± are expanded uncertainties.
Conditions: Liquid, Ebulliometric method (Recirculating still)

CC(F)F [1,1-difluoroethane]
vapor or sublimation pressure (273.15 K): 264 ± 2 kPa
vapor or sublimation pressure (283.15 K): 372 ± 2 kPa
vapor or sublimation pressure (293.15 K): 512 ± 3 kPa
vapor or sublimation pressure (303.15 K): 689 ± 3 kPa
vapor or sublimation pressure (313.15 K): 909 ± 4 kPa
vapor or sublimation pressure (323.15 K): 1176 ± 5 kPa

CCCC [butane]
vapor or sublimation pressure (273.15 K): 104 ± 2 kPa
vapor or sublimation pressure (283.15 K): 150 ± 2 kPa
vapor or sublimation pressure (293.15 K): 208 ± 2 kPa
vapor or sublimation pressure (303.15 K): 284 ± 2 kPa
vapor or sublimation pressure (313.15 K): 378 ± 3 kPa
vapor or sublimation pressure (323.15 K): 495 ± 3 kPa

Reference: the NIST ThermoML archive (doi:10.1016/j.fluid.2007.07.010)
